Here are results for four molecules from ChEMBL document CHEMBL1255340, “In vitro activities of the Rx-01 oxazolidinones against hospital and community pathogens” (2008).

Holding throughout (type): functional
Test [1] has as its system Streptococcus pneumoniae. Kind of test: Antimicrobial activity against Streptococcus pneumoniae harboring erm(B) gene by broth microdilution method.
Test [2] deals with Enterococcus faecalis. Kind of test: Antimicrobial activity against vancomycin-resistant Enterococcus faecalis nosocomial isolate.
Test [3] concerns Enterococcus faecium. As to the kind of experiment: Antimicrobial activity against vancomycin-resistant Enterococcus faecium nosocomial isolate.
In test [4] the test system is Enterococcus faecium. Kind of test: Antimicrobial activity against vancomycin-susceptible Enterococcus faecium nosocomial isolate by broth microdilution method. In general terms: Dilution methods test growth across graded concentrations, often in twofold steps.
Test [5] deals with Haemophilus influenzae. As to the kind of experiment: Antimicrobial activity against Haemophilus influenzae.
In test [6] the test system is Streptococcus pneumoniae. Kind of test: Antimicrobial activity against Streptococcus pneumoniae nosocomial isolate.
For test [7], the system named is Enterococcus faecium. Kind of test: Antimicrobial activity against Enterococcus faecium A8130.
In test [8] the test system is Staphylococcus aureus. Kind of test: Antimicrobial activity against Staphylococcus aureus A8761.
The subject of test [9] is Enterococcus faecalis. As to the kind of experiment: Antimicrobial activity against Enterococcus faecalis A5962.
In a further test the test system is Chlamydia trachomatis. Kind of test: Antimicrobial activity against Chlamydia trachomatis isolated from human respiratory tract by broth microdilution method.
The test system of test [10] is Enterococcus faecium. Kind of test: Antimicrobial activity against Enterococcus faecium A5959.
For test [11], the system named is Streptococcus pneumoniae. Kind of test: Antimicrobial activity against Streptococcus pneumoniae PU1071099 harboring 65WR66 deletion in ribosomal protein L4 by broth microdilution method.
Test [12] deals with Staphylococcus aureus. Kind of test: Antimicrobial activity against Staphylococcus aureus A8727.
The subject of test [13] is Streptococcus pneumoniae. As to the kind of experiment: Antimicrobial activity against Streptococcus pneumoniae 02J1175.
Another test deals with Staphylococcus capitis. Kind of test: Antimicrobial activity against Staphylococcus capitis A8935.
Test [14] concerns Haemophilus influenzae. Kind of test: Antimicrobial activity against Haemophilus influenzae A1950.
Test [15] concerns Enterococcus faecium. Kind of test: Antimicrobial activity against Enterococcus faecium A6349.
Test [16] concerns Enterococcus faecium. Kind of test: Antimicrobial activity against Enterococcus faecium A9621 by broth microdilution method.
For test [17], the system named is Enterococcus faecium. As to the kind of experiment: Antimicrobial activity against Enterococcus faecium A6345.
Another test concerns Moraxella catarrhalis. Kind of test: Antimicrobial activity against Moraxella catarrhalis.
The test system of test [18] is Enterococcus faecalis. Kind of test: Antimicrobial activity against vancomycin-resistant Enterococcus faecalis 03B1069.
The test system of test [19] is Staphylococcus aureus. As to the kind of experiment: Antimicrobial activity against Staphylococcus aureus pLXM1 harboring cfr gene.
For test [20], the system named is Enterococcus faecalis. As to the kind of experiment: Antimicrobial activity against Enterococcus faecalis ATCC 29212-P5 harboring G2576U mutation in 23S rRNA.
Test [21] relates to Enterococcus faecium. Kind of test: Antimicrobial activity against Enterococcus faecium A9650.
Test [22] has as its system Staphylococcus aureus. Kind of test: Antimicrobial activity against methicillin-resistant Staphylococcus aureus BK 11512.
Test [23] deals with Enterococcus faecium. As to the kind of experiment: Antimicrobial activity against Enterococcus faecium A8767.
The subject of test [24] is Enterococcus faecium. As to the kind of experiment: Antimicrobial activity against Enterococcus faecium A6349 harboring G2576U mutation in 23S rRNA.
Test [25] concerns Enterococcus faecalis. As to the kind of experiment: Antimicrobial activity against Enterococcus faecalis A6343.
The subject of test [26] is Streptococcus pneumoniae. Kind of test: Antimicrobial activity against Streptococcus pneumoniae 02J1258.
The subject of test [27] is Staphylococcus aureus. As to the kind of experiment: Antimicrobial activity against Staphylococcus aureus pL150.
In test [28] the test system is Staphylococcus aureus. As to the kind of experiment: Antimicrobial activity against methicillin resistant Staphylococcus aureus 67-0.
Test [29] relates to Enterococcus faecium. As to the kind of experiment: Antimicrobial activity against Enterococcus faecium A8948.
Test [30] relates to Streptococcus pneumoniae. As to the kind of experiment: Antimicrobial activity against Streptococcus pneumoniae harboring mef(A) gene.
The test system of another test is Legionella pneumophila. Kind of test: Antimicrobial activity against Legionella pneumophila isolated from human respiratory tract by broth microdilution method.
The test system of a further test is Chlamydia pneumoniae. As to the kind of experiment: Antimicrobial activity against Chlamydophila pneumoniae isolated from human respiratory tract by broth microdilution method.
Test [31] deals with Staphylococcus aureus. Kind of test: Antimicrobial activity against methicillin-resistant Staphylococcus aureus BK 11118.
The subject of test [32] is Staphylococcus aureus. As to the kind of experiment: Antimicrobial activity against Staphylococcus aureus A8831 harboring U2500A mutation in 23S rRNA.
For a further test, the system named is Staphylococcus hominis. As to the kind of experiment: Antimicrobial activity against Staphylococcus hominis A7828.
Test [33] deals with Staphylococcus aureus. Kind of test: Antimicrobial activity against Staphylococcus aureus A7817.
The test system of test [34] is Staphylococcus aureus. Kind of test: Antimicrobial activity against Staphylococcus aureus A8833 harboring U2500A mutation in 23S rRNA.
For test [35], the system named is Staphylococcus aureus. As to the kind of experiment: Antimicrobial activity against Staphylococcus aureus A7820.
For test [36], the system named is Streptococcus pneumoniae. As to the kind of experiment: Antimicrobial activity against Streptococcus pneumoniae harboring erm(B) and mef(A) gene.
Test [37] deals with Enterococcus faecalis. Kind of test: Antimicrobial activity against Enterococcus faecalis A7789.
In test [38] the test system is Enterococcus faecalis. Kind of test: Antimicrobial activity against Enterococcus faecalis ATCC 29212.
Test [39] deals with Staphylococcus aureus. As to the kind of experiment: Antimicrobial activity against Staphylococcus aureus ATCC 29213.
The test system of test [40] is Enterococcus faecalis. As to the kind of experiment: Antimicrobial activity against Enterococcus faecalis A6350.
Test [41] deals with Staphylococcus aureus. Kind of test: Antimicrobial activity against Staphylococcus aureus A7819 harboring G2576U mutation in 23S rRNA.
Test [42] deals with Streptococcus pneumoniae. As to the kind of experiment: Antimicrobial activity against Streptococcus pneumoniae ribosomal mutant.
In test [43] the test system is Staphylococcus epidermidis. Kind of test: Antimicrobial activity against Staphylococcus epidermidis A8934.
Test [44] has as its system Haemophilus influenzae. Kind of test: Antimicrobial activity against Haemophilus influenzae 54A1100.
For test [45], the system named is Enterococcus faecium. Kind of test: Antimicrobial activity against Enterococcus faecium A5960.
Test [46] concerns Enterococcus faecium. Kind of test: Antimicrobial activity against Enterococcus faecium A6348 harboring G2576U mutation in 23S rRNA.
Setting [47] is: Streptococcus pneumoniae, read-out: MIC.

≈ marks a conversion by molar mass, not a printed value.

Regarding `CCC[C@@H]1C[C@@H](C(=O)N[C@@H]([C@H]2O[C@H](SC)[C@H](O)[C@@H](O)[C@H]2O)[C@H](C)Cl)N(C)C1` [CLINDAMYCIN], the MIC was over 128 µg/mL in the test on Streptococcus pneumoniae [1] and over 64 µg/mL in the test on Streptococcus pneumoniae [1] (setting [47]).

On to GENTAMICIN, for which the MIC against Enterococcus faecalis [2], against Enterococcus faecium [3] and in the test with Enterococcus faecium [4] was over 128 µg/mL throughout.

As to `C[C@H]1COc2c(N3CCN(C)CC3)c(F)cc3c(=O)c(C(=O)O)cn1c23.C[C@H]1COc2c(N3CCN(C)CC3)c(F)cc3c(=O)c(C(=O)O)cn1c23.O` [LEVOFLOXACIN], the MIC against Haemophilus influenzae [5] came to 0.016 µg/mL; in the test with Haemophilus influenzae [5] (Haemophilus influenzae, read-out: MIC) it was 0.008 µg/mL.

Consider `CC(=O)NC[C@H]1CN(c2ccc(-c3ccc(CNCc4cnn[nH]4)cc3)c(F)c2)C(=O)O1` [RADEZOLID], for which the MIC was 0.25 µg/mL (≈ 0.57 µM) in the test with Streptococcus pneumoniae [6]; 0.125 µg/mL (≈ 0.285 µM) in the test on Streptococcus pneumoniae [6] (setting [47]); 2 µg/mL (≈ 4.56 µM) in the test on Enterococcus faecium [7]; 16 µg/mL (≈ 36.5 µM) against Staphylococcus aureus [8]; 1 µg/mL (≈ 2.28 µM) in the test on Enterococcus faecalis [9]; 1 µg/mL (≈ 2.28 µM) in the test on Chlamydia trachomatis. In addition, the MIC was 0.5 µg/mL (≈ 1.14 µM) in the test on Chlamydia trachomatis (Chlamydia trachomatis, read-out: MIC); 4 µg/mL (≈ 9.12 µM) in the test on Enterococcus faecium [10]; 0.5 µg/mL (≈ 1.14 µM) in the test with Streptococcus pneumoniae [11]; 4 µg/mL (≈ 9.12 µM) in the test with Staphylococcus aureus [12]; 0.25 µg/mL (≈ 0.57 µM) in the test with Streptococcus pneumoniae [13]; at most 0.25 µg/mL against Staphylococcus capitis. Also, the MIC with Haemophilus influenzae [14] was 1 µg/mL (≈ 2.28 µM); in the test with Enterococcus faecium [15], 0.5 µg/mL (≈ 1.14 µM); in the test on Enterococcus faecium [16] it was 4 µg/mL (≈ 9.12 µM); with Enterococcus faecium [17] it was 4 µg/mL (≈ 9.12 µM); against Moraxella catarrhalis, 0.5 µg/mL (≈ 1.14 µM); in the test with Moraxella catarrhalis (Moraxella catarrhalis, read-out: MIC), at most 0.25 µg/mL. Moreover, the MIC is 0.5 µg/mL (≈ 1.14 µM) against Enterococcus faecalis [18]; 0.5 µg/mL (≈ 1.14 µM) against Enterococcus faecium [4]; at most 0.25 µg/mL with Enterococcus faecium [4] (Enterococcus faecium, read-out: MIC); 2 µg/mL (≈ 4.56 µM) against Staphylococcus aureus [19]; 1 µg/mL (≈ 2.28 µM) in the test on Enterococcus faecalis [20]; 0.5 µg/mL (≈ 1.14 µM) in the test on Enterococcus faecium [21]. Moreover, the MIC turned out to be 2 µg/mL (≈ 4.56 µM) against Staphylococcus aureus [22]; 2 µg/mL (≈ 4.56 µM) against Enterococcus faecium [23]; 0.5 µg/mL (≈ 1.14 µM) with Enterococcus faecium [24]; 4 µg/mL (≈ 9.12 µM) against Enterococcus faecalis [25]; 0.25 µg/mL (≈ 0.57 µM) against Streptococcus pneumoniae [26]; 1 µg/mL (≈ 2.28 µM) against Staphylococcus aureus [27]. Also, the MIC is 1 µg/mL (≈ 2.28 µM) against Staphylococcus aureus [28]; at most 0.25 µg/mL in the test on Enterococcus faecium [29]; 0.25 µg/mL (≈ 0.57 µM) against Streptococcus pneumoniae [30]; 0.125 µg/mL (≈ 0.285 µM) in the test on Streptococcus pneumoniae [30] (setting [47]); 2 µg/mL (≈ 4.56 µM) against Legionella pneumophila; 1 µg/mL (≈ 2.28 µM) in the test on Legionella pneumophila (Legionella pneumophila, read-out: MIC). The MIC is 1 µg/mL (≈ 2.28 µM) in the test on Chlamydia pneumoniae; 1 µg/mL (≈ 2.28 µM) against Staphylococcus aureus [31]; 64 µg/mL (≈ 146 µM) in the test on Staphylococcus aureus [32]; 8 µg/mL (≈ 18.2 µM) with Staphylococcus hominis; 32 µg/mL (≈ 73 µM) in the test with Staphylococcus aureus [33]; 32 µg/mL (≈ 73 µM) with Staphylococcus aureus [34]. The MIC in the test with Staphylococcus aureus [35] was 16 µg/mL (≈ 36.5 µM); with Streptococcus pneumoniae [36], at most 0.25 µg/mL; against Enterococcus faecalis [37] it was 4 µg/mL (≈ 9.12 µM); against Enterococcus faecalis [38] it was at most 0.25 µg/mL; in the test on Staphylococcus aureus [39] it was 1 µg/mL (≈ 2.28 µM); against Enterococcus faecalis [40] it was 2 µg/mL (≈ 4.56 µM). Moreover, the MIC is 16 µg/mL (≈ 36.5 µM) in the test with Staphylococcus aureus [41]; at most 0.25 µg/mL against Streptococcus pneumoniae [42]; 2 µg/mL (≈ 4.56 µM) in test [43]; 0.5 µg/mL (≈ 1.14 µM) against Haemophilus influenzae [44]; 4 µg/mL (≈ 9.12 µM) in the test on Enterococcus faecium [45]; at most 0.25 µg/mL in the test with Streptococcus pneumoniae [1] (setting [47]). In the test on Enterococcus faecium [46], the MIC was 4 µg/mL (≈ 9.12 µM).
